Experimental data: paper PMC4626104, “Inhibition on Proteasome β1 Subunit Might Contribute to the Anti-Cancer Effects of Fangchinoline in Human Prostate Cancer Cells” (PLoS ONE, 2015)

Key:
[1] = test system: PSMB6 knockdown PC-3 cells; experiment: MTT assay in PC-3 cells with knockdown of proteasome β1 subunit (PSMB6 siRNA); format: cell-based, human; conditions: 72 h treatment, vs negative control cells
Protocol: The inhibitive effects of fangchinoline on proliferation of PC-3 cells or LnCap cells was observed by checking cell viability of cells using MTT assay as described before. Briefly, cells were seeded in 96-well plates at a density of 5×10^4 cells/mL for PC-3 cell and 4×10^4 cells/mL for LnCap cells. After overnight culture, the media were changed into fresh media containing various concentrations of fangchinoline or 0.1% DMSO (solvent control) for 24, 48 h or 72 h. Cell viability was evaluated by measuring the mitochondrial-dependent conversion of the yellow tetrazolium salt MTT to purple formazan crystals by metabolic active cells. The optical density (proportional to the number of live cells) was assessed with a Microplate Reader Bio-Rad 550 at 570 nm. IC50 value (half-maximal inhibitory concentration) was calculated by the Logit method.
Validated siRNAs for PSMB6 (Sigma-Aldrich) were transfected into PC-3 cells by using Lipofectamine RNAiMAX (Invitrogen) according to the manufacturer’s protocol. Scrambled negative control siRNAs (Sigma-Aldrich) were used as negative control. Expression levels of PSMB6 (proteasome β1 subunit) in wide type cells, PSMB6 knockdown cells (cells treated with siRNAs for PSMB6), negative control cells (cells transfected with scrambled negative control siRNAs) were checked using Western blotting assay. […]

[2] = test system: T1, proteasome of PC-3 tumor xenografts; experiment: Proteasome activities of tumor xenografts; format: in vivo, nude mice
T1 construct: from tissue; host or cells: PC-3 tumour xenografts from Balb/c-nu-nu mice, homogenate supernatant
Protocol: Cells were treated with either solvent control (0.1% DMSO), fangchinoline at different concentrations, or 1 μM carfilzomib (positive control) for 24 h at 37 °C. The enzymatic activities of cellular proteasome in cell lysate were measured as reported in our previous paper. Briefly, cells were harvested, washed with PBS and then lysed in proteasome activity assay buffer for 30 min at 4°C. The homogenate was then centrifuged at 12000 × g for 30 min at 4°C. The supernatant was collected as whole cell extract and the protein content in the supernatant was measured with the Bradford reagent. Catalytic activities of cellular proteasome were assayed by adding whole cell extract (containing 30 μg protein) to 100 μL of proteasome activity assay buffer containing 50 μM fluorogenic peptide substrates such as Z-LLE-AMC for detecting C-L activity, Z-ARR-AMC for detecting T-L activity or Suc-LLVY-AMC for detecting CT-L activity, respectively. The release of fluorogenic AMC from the peptide substrates was then measured as described above.
Male nude immunodeficient mice Balb/c-nu-nu, aged 4 weeks, were purchased from Shanghai Experimental Animal Center. […] Tumor sizes were measured every 4 days using calipers and their volumes were calculated using a standard formula: width^2×length/2. […] Body weight was measured daily. […]

COc1ccc2cc1Oc1ccc(cc1)C[C@H]1c3cc(c(OC)cc3CCN1C)Oc1c(O)c(OC)cc3c1[C@H](C2)N(C)CC3 [fangchinoline]
Effect of knockdown of proteasome β1 subunit on proliferation inhibition [1]: ameliorated proliferation-inhibiting effects | Significance of decrease in proteasome activity of tumor xenografts ([2]; 50 mg/kg group): significant | Proteasome activities of tumor xenografts compared with vehicle control ([2]; fangchinoline-treated groups (25 and 50 mg/kg)): decreased
